According to US20120082736A1, “Small-molecule TNF modulator to reduce the side effects of chemotherapy and radiotherapy” (GeneBlue Corporation, priority 2010, published 2012):

What was measured:
BDF1 mice = experiment: Cisplatin side-effect time course / MTD, ip daily ×5 (Example 1); format: in vivo; conditions: ip daily ×5, BDF1 mice
Protocol: First, 0.25 mL of 0.2 mg/mL cisplatin (eq to 2.5 mg/kg) in saline was injected ip, daily ×5, in BDF1 mice. Saline was used as a control. Two mice were used per group and sacrificed on day 0 (control), 2, 4, 7, 9, 11, and 15. In addition, 2 BDF1 mice were injected with a higher dose, 0.25 mL of 0.4 mg/mL cisplatin (eq to 5 mg/kg), daily ×5. Unfortunately, for the higher dose, 1 mouse died on day 7 and the second was euthanized on day 14. This confirms the MTD of cisplatin was <5 mg/kg by ip daily ×5 as shown in the MTD study.
To further narrow down the exact day between day 4 and 7, a follow-up animal study was conducted employing cisplatin at 2.5 mg/kg and the mice were sacrificed on day 0 (control), 5, 6, and 7 (2 mice per point).

[1] = system: BDF1 female mice treated with cisplatin; experiment: Effect of pretreatment on BUN/creatinine, AST/ALT, WBC/platelet in blood of cisplatin-treated mice (Example 2); format: in vivo; conditions: blood day 6; for platelet count, effect of pretreatment: vs Gp 1 (Control)
Protocol: Gp 1: medium (saline). Gp 2: saline followed by cisplatin (2.5 mg/kg) 30 min later. Gp 3: UTL-5g (15 mg/kg) followed by cisplatin (2.5 mg/kg) 30 min later. Gp 4: UTL-5g (30 mg/kg) followed by cisplatin (2.5 mg/kg) 30 min later. Gp 5: UTL-5g (60 mg/kg) followed by cisplatin (2.5 mg/kg) 30 min later. Gp 6: amifostine (200 mg/kg) followed by cisplatin (2.5 mg/kg) 30 min later; Gp 7: saline followed by cisplatin (5 mg/kg) 30 min later. Gp 1-Gp 6 were daily ×5, but Gp 7 was by single dose on day 0 only. StDev is shown for each Gp (n=5 for each group except for Gp 7, n=3). ** two-tailed p<0.005 vs medium control by Student's t-test.
(§1) Gp 1: medium (saline). Gp 2: saline followed by cisplatin (2.5 mg/kg) 30 min later. Gp 3: UTL-5g (15 mg/kg) followed by cisplatin 30 min later. Gp 4: UTL-5g (30 mg/kg) followed by cisplatin (2.5 mg/kg) 30 min later. Gp 5: UTL-5g (60 mg/kg) followed by cisplatin (2.5 mg/kg) 30 min later. Gp 6: amifostine (200 mg/kg) followed by cisplatin (2.5 mg/kg) 30 min later. Gp 7: saline followed by cisplatin (5 mg/kg) 30 min later. Gp 1-Gp 6 were daily ×5, but Gp 7 was by single dose on day 0 only. StDev is shown for each Gp (n=5 for each group except n=4 for Gp 7). * P<0.05, ** p<0.005 vs. medium control (Gp 1) by Student's t-test (two-tailed).
as §1, with “p<0.005, *** p<0.0005” for “p<0.005”, “control” for “control (Gp 1)”
BDF1 female mice (average wt ˜20 g/mouse) were randomly divided into the following groups (5 mice per group) and each treated daily ×5 (starting from day 0) by ip injection (0.25 mL/mouse), except in Gp 7, each was treated by a single dose ip injection (0.25 mL/mouse) on day 0 only, as described below • Gp 1: medium (saline) followed by medium (saline) 30 min later • Gp 2: medium (saline) followed by cisplatin (2.5 mg/kg) 30 min later • Gp 3: UTL-5g (15 mg/kg) followed by cisplatin (2.5 mg/kg) 30 min later • Gp 4: UTL-5g (30 mg/kg) followed by cisplatin (2.5 mg/kg) 30 min later • Gp 5: UTL-5g (60 mg/kg) followed by cisplatin (2.5 mg/kg) 30 min later • Gp 6: amifostine (200 mg/kg) followed by cisplatin (2.5 mg/kg) 30 min later • Gp 7: medium (saline) followed by cisplatin (5 mg/kg) 30 min later (single dose on Day 0 only)
Preparation of the test samples are described below: • Cisplatin: Cisplatin was dissolved in saline (0.2 and 0.4 mg/mL in saline) for 2.5 and 5 mg/kg ip injection. • UTL-5g: The stock solution of UTL-5g was first dissolved in DMSO and equal volume of Cremophor/propylene glycol (60/40 v/v) was added to make a stock solution. Immediately before the injection, saline was added to this temporary solution at a 90:10 v/v ratio and mixed thoroughly. Three concentrations for ip injection were prepared (1.25, 2.5, and 5 mg/mL) so that the doses are equivalent to 15, 30, and 60 mg/kg with a 0.25 mL injection. • Amifostine: The stock solution of amifostine was dissolved in saline to the desired concentration (16 mg/mL) for the 200 mg/kg injection.
Cardiac puncture was used to obtain blood from each mouse on day 6. To assess liver/kidney protection by UTL-5g, all blood samples were analyzed for BUN, creatinine, AST, and ALT by the chemistry lab at Henry Ford Health System. Unopette® (Becton Dickinson, Franklin Lakes, N.J.) diluting systems and a hemocytometer were used to assess the effect of UTL-5g on WBC and platelet counts in blood.

TNF-α = TNF-α levels in plasma of cisplatin-treated mice (commercial assay kit, eBioscience); format: in vivo; conditions: cisplatin 2.5 mg/kg ip daily ×5; pooled plasma day 6
Protocol: FIG. 5. Effect of UTL-5g on TNF-α levels in plasma for mice treated with cisplatin. Gp 1, medium control (saline) only; Gp 2, saline followed by cisplatin (2.5 mg/kg) 30 min later; Gp 3, UTL-5g (15 mg/kg) followed by cisplatin 30 min later; Gp 4, UTL-5g (30 mg/kg) followed by cisplatin 30 min later; Gp 5, UTL-5g (60 mg/kg) followed by cisplatin 30 min later. Y axis represents the relative levels of TNF-α assuming 0% for Gp 1 (Control). Level of TNF-α on the figure is based on the average of 2 readings. […]
Using the samples from the same animal study, TNF-α levels in plasma were analyzed. […]

tumor cells = conditions: animal data; cited from earlier work
[2] = within 1 h, cited from earlier work
[3] = cisplatin 2.5 mg/kg ip daily ×5 or 5 mg/kg single dose
[4] = cisplatin 5 mg/kg ip single dose day 0 (Gp 7) vs Control (Gp 1)
[5] = ip 30 min before cisplatin 2.5 mg/kg, daily ×5, UTL-5g 15, 30, 60 mg/kg, amifostine 200 mg/kg

Row | Compound | MTD of cisplatin (BDF1 mice) | ALT levels, effect of cisplatin [1, 3] | AST levels, effect of cisplatin [1, 3] | BUN levels, effect of cisplatin [1, 3] | creatinine, effect of cisplatin [1, 3] | WBC count, effect of cisplatin [1, 4] | platelet count, effect of cisplatin [1, 4] | TNF-α in plasma, effect of cisplatin (TNF-α) | tumor-protective effect (tumor cells) | BUN levels, effect of pretreatment [1, 5] | creatinine, effect of pretreatment [1, 5] | platelet count, effect of pretreatment [1, 5] | platelet count, effect of pretreatment ([1]; ip 30 min before cisplatin 2.5 mg/kg, daily ×5, UTL-5g 15, 30, 60 mg/kg, amifostine 200 mg/kg, listed as Amifostine) | cleared from the plasma, share of the peak concentration ([2]; amifostine) | metabolite cleared from the plasma, share of the peak concentration ([2]; metabolite of amifostine)
1 | N.N.[Cl][Pt][Cl] [cisplatin, cis-dichlorodiammine platinum, reference compound] | < 5 mg/kg | elevated by cisplatin | elevated by cisplatin | elevated by cisplatin in a dose-dependent manner | Essentially the same results | lower WBC count as compared to Control | did decrease platelet count significantly | elevated by cisplatin |  |  |  |  |  |  | 
2 | NCCCNCCSP(=O)(O)O [amifostine, reference compound] |  |  |  |  |  |  |  |  | may have tumor-protective effect | essentially the same reduction | Essentially the same results | statistically significant decrease on platelet count | does not have similar positive effect on platelet production | 95% | 50%
